In test [1] the target is T1, Purine nucleoside phosphorylase (Homo sapiens, UniProt P00491).
T1 sequence (P00491 whole entry): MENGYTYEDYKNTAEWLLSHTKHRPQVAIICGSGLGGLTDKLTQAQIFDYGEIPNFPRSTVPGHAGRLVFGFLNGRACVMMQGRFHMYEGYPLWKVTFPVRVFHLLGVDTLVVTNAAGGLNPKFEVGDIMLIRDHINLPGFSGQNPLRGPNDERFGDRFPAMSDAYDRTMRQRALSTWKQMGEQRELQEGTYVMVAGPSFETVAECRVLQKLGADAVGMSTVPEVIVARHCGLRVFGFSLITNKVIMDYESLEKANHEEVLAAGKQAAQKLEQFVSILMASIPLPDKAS
The experiment in a line: Inhibition of human PNP.

Test [2] has as its target T2, Purine nucleoside phosphorylase (Plasmodium falciparum, UniProt Q8T9Z7).
T2 sequence (Q8T9Z7 whole entry): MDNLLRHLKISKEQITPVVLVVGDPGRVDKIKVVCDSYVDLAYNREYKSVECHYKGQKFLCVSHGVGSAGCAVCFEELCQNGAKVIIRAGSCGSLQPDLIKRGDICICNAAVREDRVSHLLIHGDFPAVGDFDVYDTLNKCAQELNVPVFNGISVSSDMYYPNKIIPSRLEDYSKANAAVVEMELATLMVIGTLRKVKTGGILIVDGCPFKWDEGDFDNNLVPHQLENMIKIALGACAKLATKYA
The experiment in a line: Inhibition of Plasmodium falciparum PNP expressed in Escherichia coli BL21(DE3) cells by spectrophotometry.

The next test has as its system Plasmodium falciparum. The experiment in a line: Antiplasmodial activity against erythrocytic stages of Plasmodium falciparum 3D7 after 48 hrs by SYBR green assay. The format is functional, organism-based. The note with it: 3D7, 48 h.
For another test, the target named is Uridine phosphorylase 1 (Homo sapiens, UniProt Q16831). The experiment in a line: Inhibition of human uridine phosphorylase.

SMILES strings stand for the structures. pEC50, pIC50, pKd, pKi: −log10 of the molar value. Some results are limits rather than exact numbers.

As usually defined, the pKd is the Kd on a negative log10 scale, so that one unit is a factor of ten. A higher pKd goes with a low Kd. As usually defined, the pIC50 is the IC50 on a negative log10 scale, so that one unit is a factor of ten. In general, pKi refers to the negative decadic logarithm of the Ki, by convention in mol/L. Low values mean a high Ki, high ones a low Ki. As a reminder, the pEC50 is −log10 of the EC50, conventionally taken in molar units. A higher pEC50 goes with a low EC50.

Uridine phosphorylase 1, sequence (Q16831 whole entry): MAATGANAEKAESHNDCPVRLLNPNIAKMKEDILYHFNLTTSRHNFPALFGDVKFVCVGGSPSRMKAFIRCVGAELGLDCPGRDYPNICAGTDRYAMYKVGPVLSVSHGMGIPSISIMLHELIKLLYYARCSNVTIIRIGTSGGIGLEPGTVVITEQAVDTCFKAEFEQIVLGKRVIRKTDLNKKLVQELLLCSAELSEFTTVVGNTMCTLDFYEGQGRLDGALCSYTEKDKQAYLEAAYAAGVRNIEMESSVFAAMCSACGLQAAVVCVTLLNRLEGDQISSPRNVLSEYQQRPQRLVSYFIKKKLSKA

Consider `O=c1[nH]cnc2c(CN3CCCC3)c[nH]c12`, for which, in test [1], the pKd is 8.26.

Turning to `O=C1NC(=O)C(Cc2ccccc2)C(=O)N1`, the pIC50 in test [2] is under 3.00.

In test [2], `O=c1ccn(CCN2CCCC2)c(=O)[nH]1` gave a negative logarithm of the IC50 (pIC50) of 3.85 and a pKi of 4.57. For the same molecule, the pEC50 with Plasmodium falciparum was under 3.30.

In test [2], `O=c1ccn(CCCN2CCCC2)c(=O)[nH]1` gave a pIC50 of 3.64 and a pKi of 4.23. Also, in the test with Plasmodium falciparum, the pEC50 was under 3.00.

For the molecule `O=c1ccn(CCCN2CCC[C@H]2CO)c(=O)[nH]1`, in test [2], the pIC50 was 3.15 and the negative-log Ki (pKi) was 3.87. The molecule further showed a pEC50 in the test with Plasmodium falciparum of 3.43.

With `O=c1ccn(CCCCN2CCCC2)c(=O)[nH]1`, in test [2], the pIC50 is 3.28 and the pKi was 3.98. The molecule further had a pEC50 in the test with Plasmodium falciparum of under 3.00.

Consider `O=c1ccn(CCCCN2CCC[C@H]2CO)c(=O)[nH]1`, for which, in test [2], the pIC50 was 3.23 and the negative-log Ki (pKi) is 3.95. This molecule had a pEC50 in the test on Plasmodium falciparum of under 3.00.

In test [2], `O=c1cc[nH]c(=O)n1CCN1CCCC1` gave a pIC50 of 4.38 and a pKi of 5.22. The pEC50 in the test on Plasmodium falciparum is under 3.30.

With `O=c1cc[nH]c(=O)n1CCN1CCC[C@H]1CO`, in test [2], the pIC50 is 3.44 and the pKi is 4.12. Also, the pEC50 in the test with Plasmodium falciparum is under 3.00.

On to `O=C1NC(=O)N(COCCO)C(=O)C1Cc1cccc(OCc2ccccc2)c1` (stereo not drawn), for which the pKi (on Uridine phosphorylase 1; in test [2]) was 8.96 each time. In test [2], this molecule gave a pIC50 of under 3.00.

Turning to `O=C1NC(=O)C(Cc2cccc(OCc3ccccc3)c2)C(=O)N1`, the negative logarithm of the Ki (pKi) at Uridine phosphorylase 1 was 5.64. This molecule also gave a pIC50 in test [2] of under 3.00.

Values taken from ChEMBL document CHEMBL1275309, “Exploring new inhibitors of Plasmodium falciparum purine nucleoside phosphorylase” (Eur J Med Chem, 2010).
